Reference: patent publication US5541189A, “Substituted aliphatic amine-containing macrocyclic immunomodulators” (Abbott Laboratories, priority 1995, dated 1996)

Key:
[1] = tested on: human mixed lymphocyte reaction (MLR); experiment: human mixed lymphocyte reaction (MLR) assay, immunosuppressant activity; format: cell-based; conditions: in vitro
Procedure: The immunosuppressant activity of the compounds of the present invention was determined using the human mixed lymphocyte reaction (MLR) assay described by Kino, T. et al. in Transplantation Proceedings XIX(5):36-39, Suppl. 6 (1987), incorporated herein by reference.

P-glycoprotein = conditions: known; increasing sensitivity of multidrug resistant (MDR) cells to chemotherapeutic agents; cited from earlier work

| IC50 [1] | SMILES | modulators of P-glycoprotein (P-glycoprotein) |
| --- | --- | --- |
| < 1000 nM | CC[C@@H]1/C=C(\C)C[C@H](C)C[C@H](OC)[C@H]2O[C@@](O)(C(=O)C(=O)N3CCCC[C@H]3C(=O)O[C@H](/C(C)=C/[C@@H]3CC[C@@H](NCCCN(C)C)[C@H](OC)C3)[C@H](C)[C@@H](O)CC1=O)[C@H](C)C[C@@H]2OC [Example 47] |  |
| < 1000 nM | CC[C@@H]1/C=C(\C)C[C@H](C)C[C@H](OC)[C@H]2O[C@@](O)(C(=O)C(=O)N3CCCC[C@H]3C(=O)O[C@H](/C(C)=C/[C@@H]3CC[C@H](NCCCN(C)C)[C@H](OC)C3)[C@H](C)[C@@H](O)CC1=O)[C@H](C)C[C@@H]2OC [Example 7] |  |

More lines, now with the values behind:

| SMILES | IC50 [1] | modulators of P-glycoprotein (P-glycoprotein) |
| --- | --- | --- |
| C=CC[C@@H]1/C=C(\C)C[C@H](C)C[C@H](OC)[C@H]2O[C@@](O)(C(=O)C(=O)N3CCCC[C@H]3C(=O)O[C@H](/C(C)=C/[C@@H]3CC[C@@H](O)[C@H](OC)C3)[C@H](C)[C@@H](O)CC1=O)[C@H](C)C[C@@H]2OC [FK-506] |  | effective modulators of P-glycoprotein |
| CC[C@@H]1/C=C(\C)C[C@H](C)C[C@H](OC)[C@H]2O[C@@](O)(C(=O)C(=O)N3CCCC[C@H]3C(=O)O[C@H](/C(C)=C/[C@@H]3CC[C@H](N(CC)CCN(CC)CC)[C@H](OC)C3)[C@H](C)[C@@H](O)CC1=O)[C@H](C)C[C@@H]2OC [Example 29] | < 1000 nM |  |
| CC[C@@H]1/C=C(\C)C[C@H](C)C[C@H](OC)[C@H]2O[C@@](O)(C(=O)C(=O)N3CCCC[C@H]3C(=O)O[C@H](/C(C)=C/[C@@H]3CC[C@H](NCCN(CC)CC)[C@H](OC)C3)[C@H](C)[C@@H](O)CC1=O)[C@H](C)C[C@@H]2OC [Example 13] | < 1000 nM |  |
